Assays:
[1] = system: circular corneal fragment extracted from a pig eye ball; experiment: Corneal walleye/cloudiness and edema of pig corneal fragments soaked in test or control solutions; design: degree of corneal walleye/cloudiness (relative value): scale not given here; key to corneal edema: ◯: Corneal edema was observed.; —: No corneal edema was observed; conditions: for corneal edema / degree of corneal walleye/cloudiness (relative value): 100 mM in physiological saline
Procedure: Experiment to examine the influence of cyclic tetrasaccharide on corneal walleye/cloudiness was conducted as follows: A physiological saline containing 100 mM cyclic tetrasaccharide was previously prepared for use as a test solution by dissolving a cyclic tetrasaccharide crystal, pentahydrate, which had been prepared by the later described method in Example for Reference 2. As a positive control solution, it was prepared a physiological saline containing 100 mM α,α-trehalose, a reagent grade specimen, commercialized by Hayashibara Biochemical Laboratories, Inc., Okayama, Japan; and as a negative control solution, physiological saline was used. Two milliliters of any one of the above three kinds of aqueous solutions were added to respective two wells in a commercialized 24-well culture plate. To each well in each culture plate a circular corneal fragment, which had been extracted from a pig eye ball obtained from a slaughterhouse by using a trephine for corneal transplantation, was placed and macroscopically and microscopically observed for changing in both the degree of corneal walleye/cloudiness and the change of corneal shape such as corneal edema. The macroscopic and microscopic observations were done just after the corneas were placed in the wells at (0) and at 1, 2, 6, 24, 48 and 72 hours after their placing. The methods of macroscopic and microscopic observations and the analysis of the time course change of corneal walleye/cloudiness were conducted by the same ones as used in Experiment 1. Tables 3 and 4 show the transition of corneal walleye/cloudiness and that of the corneal edema, respectively.

pig lens = experiment: Swelling and cloudiness of extracted pig lenses soaked in test or control solutions (traumatic cataract model); design: key to degree of cloudiness in the lens (relative value): relative gray-scale density; uninjured lens in saline at start = 10; conditions: for degree of cloudiness in the lens (relative value) / swelling of the lens: 100 mM in physiological saline
Procedure: Using an injured pig lens employed as a model for traumatic cataract, the influence of cyclic tetrasaccharide on the cloudiness in the lens was experimented as follows: A test solution was previously prepared by dissolving a cyclic tetrasaccharide crystal, penta hydrate, which had been prepared by the method in the later described Reference for Example 2, in physiological saline into a physiological saline containing 100 mM cyclic tetrasaccharide. As a positive control, a physiological saline containing 100 mM α,α-trehalose, a reagent grade specimen, commercialized by Hayashibara Biochemical Laboratories, Inc., Okayama, Japan, was used; andasanegativecontrol, physiological saline was used. Two milliliter aliquots of any one of the above three kinds of aqueous solutions were added to every two wells in respective commercialized 24-well culture plates. In one of the two wells containing the same kind of solution in each plate was placed a pig lens, which had been obtained from a slaughter-house, extracted by incision within three hours after the obtention and without injuring, and washing the extracted lens with physiological saline; while in the other of the two wells was placed a pig lens, which had been prepared by the same procedure as in the above but injured with a 27-gauge injection needle (commercialized by Terumo Co., Tokyo, Japan) to form an injured line, about one millimeter in length. These lens were allowed to stand at ambient temperature and macroscopically and microscopically observed their change in the degree of cloudiness and in the shape of swelling, etc. This experiment was run in a triplicate manner, and the macroscopic and microscopic observations were done just after (0), 1 hour, 2 hours, 6 hours, and 24 hours after the lenses were placed in the wells, and then observed daily over 28 days. A similar experiment was further conducted using a physiological saline containing 75 mM, 50 mM, 20 mM, 10 mM, or 1 mM cyclic tetrasaccharide and a lens that had not been injured with the injection needle. The degree of cloudiness in each lens, observed with “STEREOMICROSCOPE SZX12”, a product name of a stereomicroscope commercialized by Olympus Co., Tokyo, Japan, was expressed by photographing a transmitted light image of each lens with “PENGUIN 150CL”, a digital camera commercialized by Pixela Co., Tokyo, Japan, capturing the transmitted image by a computer using a view finder commercialized by Olympus Co., Tokyo, Japan, and expressing numerically the degree of light and shade of the captured image as a gray-scale using “Scion Image for Windows Beta 4.0.2”, a software commercialized by Scion Co., Maryland, U.S.A., to obtain a mean density for each lens. The time course change in the degree of cloudiness in each lens placed in each solution was expressed with a relative value, regarding the degree of cloudiness, just after the lens free of injury had been placed in physiological saline, as 10. The change of cloudiness and swelling are respectively in Tables 1 and 2. In Table 1, there show only the results from time 0 hour through two days and from days 7, 14 and 28.

## OC[C@H]1O[C@H](O[C@H]2O[C@H](CO)[C@@H](O)[C@H](O)[C@H]2O)[C@H](O)[C@@H](O)[C@@H]1O [Positive control solution, α,α-trehalose, reference compound]
[1]; 1 hour
  corneal edema: —
  degree of corneal walleye/cloudiness (relative value): 11
[1]; 2 hours
  corneal edema: —
  degree of corneal walleye/cloudiness (relative value): 11
[1]; 6 hours
  corneal edema: —
  degree of corneal walleye/cloudiness (relative value): 13
[1]; 24 hours
  corneal edema: ◯
  degree of corneal walleye/cloudiness (relative value): 30
[1]; 48 hours
  corneal edema: ◯
  degree of corneal walleye/cloudiness (relative value): 60
[1]; 72 hours
  corneal edema: ◯
  degree of corneal walleye/cloudiness (relative value): 70
[1]; time 0
  corneal edema: —
  degree of corneal walleye/cloudiness (relative value): 10
[1]; 100 mM, at 24 hours
  corneal edema (in words): macroscopic corneal edema
Pig lens; injured lens, 1 hour
  degree of cloudiness in the lens (relative value): 10
Pig lens; injured lens, 2 hours
  degree of cloudiness in the lens (relative value): 10
Pig lens; injured lens, 6 hours
  degree of cloudiness in the lens (relative value): 15
Pig lens; injured lens, 24 hours
  degree of cloudiness in the lens (relative value): 46
Pig lens; injured lens, 2 days
  degree of cloudiness in the lens (relative value): 89
  swelling of the lens: ◯ (swelling was observed)
Pig lens; injured lens, time 0
  degree of cloudiness in the lens (relative value): 10
Pig lens; no injury, 1 hour
  degree of cloudiness in the lens (relative value): 13
Pig lens; no injury, 2 hours
  degree of cloudiness in the lens (relative value): 13
Pig lens; no injury, 6 hours
  degree of cloudiness in the lens (relative value): 12
Pig lens; no injury, 24 hours
  degree of cloudiness in the lens (relative value): 14
Pig lens; no injury, 2 days
  degree of cloudiness in the lens (relative value): 19
Pig lens; no injury, 7 days
  degree of cloudiness in the lens (relative value): 36
Pig lens; no injury, 14 days
  degree of cloudiness in the lens (relative value): 39
Pig lens; no injury, 28 days
  degree of cloudiness in the lens (relative value): 75
  swelling of the lens: ◯ (swelling was observed)
Pig lens; no injury, time 0
  degree of cloudiness in the lens (relative value): 10
Pig lens; 100 mM, injured lens, 2 days after initiating observation
  swelling of the lens (in words): observed to have swelling from 2 days
Pig lens; 100 mM, lenses with no injury
  cloudiness in the lens compared with the negative control solution: inhibited
Pig lens; 100 mM, lenses with no injury, on 28 days
  swelling of the lens (in words): swelling of the lenses was macroscopically observed
